A short description of data set [1]: in vitro. The settings on record: human, microsomes, pH 7.4.
The subject of data set [2] is SARS-CoV-2 strain XBB.1.5. Type of data set: cell-based.
The test system of data set [3] is SARS-CoV-2 strain BA.1. It counts as cell-based.
In data set [4] the target is SARS-CoV-2 M^Pro (Severe acute respiratory syndrome coronavirus 2, UniProt P0DTD1). It counts as biochemical. The settings on record: 20 nM M^Pro, 30 min preincubation, 10 μM Sub3.
The nature of data set [5]: in vitro. Particulars: human.

On to `C[C@@H](OC(C)(C)C)[C@H](NC(=O)OCc1cccc(OCCCCOc2cccc3c2C(=O)N(C2CCC(=O)NC2=O)C3=O)c1)C(=O)N[C@@H](CC1CCCCC1)C(=O)N[C@H](C=O)C[C@@H]1CCNC1=O` (some centres unmarked) [MPD1], for which, in data set [1], the CLint scaled is 149 ± 12.7 mL/min/kg. In the case of `C[C@@H](OC(C)(C)C)[C@H](NC(=O)OCc1cccc(OCCCCCCOc2cccc3c2C(=O)N(C2CCC(=O)NC2=O)C3=O)c1)C(=O)N[C@@H](CC1CCCCC1)C(=O)N[C@H](C=O)C[C@@H]1CCNC1=O` (some centres unmarked) [MPD2], the “reduction of viral production” value in data set [2] and in data set [3] was 90% throughout. In data set [1], the CLint scaled was 36.3 ± 2.51 mL/min/kg. Moreover, in data set [1], the intrinsic metabolic clearance (CLint scaled) at 1 h, 5 µM was determined as 36.2 mL/min/kg. `C[C@@H](OC(C)(C)C)[C@H](NC(=O)OCc1cccc(OCCCCCCCCOc2cccc3c2C(=O)N(C2CCC(=O)NC2=O)C3=O)c1)C(=O)N[C@@H](CC1CCCCC1)C(=O)N[C@H](C=O)C[C@@H]1CCNC1=O` (some centres unmarked) [MPD3] gave a CLint scaled in data set [1] of 24.7 ± 0.5 mL/min/kg. Take `C[C@@H](OC(C)(C)C)[C@H](NC(=O)OCc1cccc(OCCCCCCN(C)CCN(C)c2cccc3c2C(=O)N(C2CCC(=O)NC2=O)C3=O)c1)C(=O)N[C@@H](CC1CCCCC1)C(=O)N[C@H](C=O)C[C@@H]1CCNC1=O` (some centres unmarked) [MPD4]: in data set [4], the half-maximal inhibitory concentration (IC50) was 36 nM.

For `C[C@@H](OC(C)(C)C)[C@H](NC(=O)OCc1cn(CCOCCOCCOCCC(=O)Nc2cccc3c2C(=O)N(C2CCC(=O)NC2=O)C3=O)nn1)C(=O)N[C@@H](CC1CCCCC1)C(=O)N[C@H](C=O)C[C@@H]1CCNC1=O` (some centres unmarked) [MPD5], it took 36 nM to reach half-maximal inhibition in data set [4] (IC50).

In data set [4], `C[C@@H](OC(C)(C)C)[C@H](NC(=O)OCc1cn(CCOCCOCCOCCC(=O)N(C)CCN(C)c2cccc3c2C(=O)N(C2CCC(=O)NC2=O)C3=O)nn1)C(=O)N[C@@H](CC1CCCCC1)C(=O)N[C@H](C=O)C[C@@H]1CCNC1=O` (some centres unmarked) [MPD6] had an IC50 of 111 nM. The same measure, in the same setting: the figure for `CC(C)(COCCCCCCOc1cccc2c1C(=O)N(C1CCC(=O)NC1=O)C2=O)NC(=O)N[C@H](C(=O)N1C[C@H]2[C@@H]([C@H]1C(=O)N[C@H](C=O)C[C@@H]1CCNC1=O)C2(C)C)C(C)(C)C` (some centres unmarked) [MPD7] is 35 nM. Still for that read-out and setting: the figure for `CC(C)(CCOCCCCCCOc1cccc2c1C(=O)N(C1CCC(=O)NC1=O)C2=O)NC(=O)N[C@H](C(=O)N1C[C@H]2[C@@H]([C@H]1C(=O)N[C@H](C=O)C[C@@H]1CCNC1=O)C2(C)C)C(C)(C)C` (some centres unmarked) [MPD8] is 24 nM; for `CN(CCN(C)c1cccc2c1C(=O)N(C1CCC(=O)NC1=O)C2=O)C(=O)CCC(C)(C)NC(=O)N[C@H](C(=O)N1C[C@H]2[C@@H]([C@H]1C(=O)N[C@H](C=O)C[C@@H]1CCNC1=O)C2(C)C)C(C)(C)C` (some centres unmarked) [MPD9] it is 31 nM; for `CC(C)(CCC(=O)NCCCC(=O)Nc1cccc2c1C(=O)N(C1CCC(=O)NC1=O)C2=O)NC(=O)N[C@H](C(=O)N1C[C@H]2[C@@H]([C@H]1C(=O)N[C@H](C=O)C[C@@H]1CCNC1=O)C2(C)C)C(C)(C)C` (some centres unmarked) [MPD10] it is 149 nM. Regarding `C[C@@H](OC(C)(C)C)[C@H](NC(=O)OCc1ccccc1)C(=O)N[C@@H](CC1CCCCC1)C(=O)N[C@H](C=O)C[C@@H]1CCNC1=O` [MPI8, reference compound], the CC50 at 48 h in data set [5] came out at 70 µM.

(Values after article PMC11056980 (Journal of medicinal chemistry, 2024).)
